Common to all, as to format: cell-based
Test [1] has as its target rat-species vanilloid receptor 1 (VR1/TRPV1) (Rattus norvegicus (Rat), UniProt O35433). As to the kind of experiment: FLIPR Ca2+ influx assay on rat dorsal root ganglia cells, capsaicin stimulus (method I). The settings on record: for inhibition at 5 µM: read-out: Ki (rat) Cap: inhibition (as a percentage) @ 5 μM, capsaicin, inhibition determined at 5 μM. On the procedure: The agonistic or antagonistic effect of the substances to be tested on the rat-species vanilloid receptor 1 (VR1/TRPV1) can be determined using the following assay. In this assay, the influx of Ca^2+ through the receptor channel is quantified with the aid of a Ca^2+-sensitive dye (type Fluo-4, Molecular Probes Europe BV, Leiden, the Netherlands) in a fluorescent imaging plate reader (FLIPR, Molecular Devices, Sunnyvale, USA).
Complete medium: 50 ml HAMS F12 nutrient mixture (Gibco Invitrogen GmbH, Karlsruhe, Germany) with
10% by volume of FCS (foetal calf serum, Gibco Invitrogen GmbH, Karlsruhe, Germany, heat-inactivated);
2 mM L-glutamine (Sigma, Munich, Germany);
1% by weight of AA solution (antibiotic/antimyotic solution, PAA, Pasching, Austria) and 25 ng/ml NGF medium (2.5 S, Gibco Invitrogen GmbH, Karlsruhe, Germany)
Cell culture plate: Poly-D-lysine-coated, black 96-well plates having a clear base (96-well black/clear plate, BD Biosciences, Heidelberg, Germany) are additionally coated with laminin (Gibco Invitrogen GmbH, Karlsruhe, Germany), the laminin being diluted with PBS (Ca—Mg-free PBS, Gibco Invitrogen GmbH, Karlsruhe, Germany) to a concentration of 100 μg/ml. Aliquots having a laminin concentration of 100 μg/ml are removed and stored at −20° C. The aliquots are diluted with PBS in a ratio of 1:10 to 10 μg/ml of laminin and respectively 50 μL of the solution are pipetted into a recess in the cell culture plate. The cell culture plates are incubated for at least two hours at 37° C., the excess solution is removed by suction and the recesses are each washed twice with PBS. The coated cell culture plates are stored with excess PBS which is not removed until just before the feeding of the cells.
The vertebral column is removed from decapitated rats and placed immediately into cold HBSS buffer (Hank's buffered saline solution, Gibco Invitrogen GmbH, Karlsruhe, Germany), i.e. buffer located in an ice bath, mixed with 1% by volume (percent by volume) of an AA solution (antibiotic/antimyotic solution, PAA, Pasching, Austria). The vertebral column is cut longitudinally and removed together with fasciae from the vertebral canal. Subsequently, the dorsal root ganglia (DRG) are removed and again stored in cold HBSS buffer mixed with 1% by volume of an AA solution. The DRG, from which all blood remnants and spinal nerves have been removed, are transferred in each case to 500 μL of cold type 2 collagenase (PAA, Pasching, Austria) and incubated for 35 minutes at 37° C. After the addition of 2.5% by volume of trypsin (PAA, Pasching, Austria), incubation is continued for 10 minutes at 37° C. After complete incubation, the enzyme solution is carefully pipetted off and 500 μL of complete medium are added to each of the remaining DRG. […] The contents of each Falcon tube are respectively filtered through a 70 μm Falcon filter element and centrifuged for 10 minutes at 1,200 rpm and RT. The resulting pellet is respectively taken up in 250 μL of complete medium and the cell count is determined.
The number of cells in the suspension is set to 3×10^5 per ml and 150 μL of this suspension are in each case introduced into a recess in the cell culture plates coated as described hereinbefore. […] Subsequently, the cells are loaded with 2 μM of Fluo-4 and 0.01% by volume of Pluronic F127 (Molecular Probes Europe BV, Leiden, the Netherlands) in HBSS buffer (Hank's buffered saline solution, Gibco Invitrogen GmbH, Karlsruhe, Germany) for 30 min at 37° C., washed 3 times with HBSS buffer and after further incubation for 15 minutes at RT used for Ca^2+ measurement in a FLIPR assay. The Ca^2+-dependent fluorescence is in this case measured before and after the addition of substances (λex=488 nm, λem=540 nm). Quantification is carried out by measuring the highest fluorescence intensity (FC, fluorescence counts) over time.
The FLIPR protocol consists of 2 substance additions.

The target in test [2] is T1, hVR1 (Homo sapiens (Human), UniProt Q8NER1). Put plainly: FLIPR Ca2+ influx assay on CHO K1 cells transfected with the VR1 gene, capsaicin stimulus (method II). Further details: key to Ki (human being) Cap: result in words (NE / AG): AG=agonist; pAG=partial agonist; NE=no effect. The settings on record: for Ki (human being) Cap: result in words (NE / AG): capsaicin; for Ki: capsaicin (Cap), read-out: Ki (human being) [nM] Cap. From the text:
In the process, the Ca^2+ influx is quantified in the FLIPR assay with the aid of a Ca^2+-sensitive dye (type Fluo-4, Molecular Probes Europe BV, Leiden, the Netherlands) in a fluorescent imaging plate reader (FLIPR, Molecular Devices, Sunnyvale, USA), as described hereinafter.
The agonistic or antagonistic effect of the substances to be tested on the vanilloid receptor 1 (VR1) can also be determined using the following assay. In this assay, the influx of Ca^2+ through the channel is quantified with the aid of a Ca^2+-sensitive dye (type Fluo-4, Molecular Probes Europe BV, Leiden, the Netherlands) in a fluorescent imaging plate reader (FLIPR, Molecular Devices, Sunnyvale, USA).
Chinese hamster ovary cells (CHO K1 cells, European Collection of Cell Cultures (ECACC) United Kingdom) are stably transfected with the VR1 gene. For functional testing, these cells are plated out on poly-D-lysine-coated black 96-well plates having a clear base (BD Biosciences, Heidelberg, Germany) at a density of 25,000 cells/well. The cells are incubated overnight at 37° C. and 5% CO2 in a culture medium (Ham's F12 nutrient mixture, 10% by volume of FCS (foetal calf serum), 18 μg/ml of L-proline). The next day the cells are incubated with Fluo-4 (Fluo-4 2 μM, 0.01% by volume of Pluronic F127, Molecular Probes in HBSS (Hank's buffered saline solution), Gibco Invitrogen GmbH, Karlsruhe, Germany) for 30 minutes at 37° C. Subsequently, the plates are washed three times with HBSS buffer and after further incubation for 15 minutes at RT used for Ca^2+ measurement in a FLIPR assay. The Ca^2+-dependent fluorescence is measured before and after the addition of the substances to be tested (λex wavelength=488 nm, λem=540 nm). Quantification is carried out by measuring the highest fluorescence intensity (FC, fluorescence counts) over time.
The FLIPR protocol consists of 2 substance additions. First the compounds to be tested (10 μM) are pipetted onto the cells and the Ca^2+ influx is compared with the control (capsaicin 10 μM) (% activation based on the Ca^2+ signal after the addition of 10 μM of capsaicin). After 5 minutes' incubation, 100 nM of capsaicin are applied and the Ca^2+ influx is also determined.
Desensitising agonists and antagonists led to suppression of the Ca^2+ influx.
Starting from the percentage displacement caused by different concentrations of the compounds to be tested of general formula I, IC50 inhibitory concentrations which cause a 50-percent displacement of capsaicin were calculated. Ki values for the test substances were obtained by conversion by means of the Cheng-Prusoff equation (Cheng, Prusoff; Biochem. Pharmacol. 22, 3099-3108, 1973).

The target in test [3] is T1, hVR1. Put plainly: FLIPR assay hVR1, after pH stimulus. On the set-up: key to IC50 (human being) hVR1 pH: result in words (NE / AG): AG=agonist; pAG=partial agonist; NE=no effect. Particulars: for inhibition at 10 µM: read-out: IC50 (human being) hVR1 pH: inhibition (as a percentage) @ 10 μM, inhibition determined at 10 μM. On the procedure:
In this assay, the influx of Ca^2+ through the channel is quantified with the aid of a Ca^2+-sensitive dye (type Fluo-4, Molecular Probes Europe BV, Leiden, the Netherlands) in a fluorescent imaging plate reader (FLIPR, Molecular Devices, Sunnyvale, USA). Chinese hamster ovary cells (CHO K1 cells, European Collection of Cell Cultures (ECACC) United Kingdom) are stably transfected with the VR1 gene. For functional testing, these cells are plated out on poly-D-lysine-coated black 96-well plates having a clear base (BD Biosciences, Heidelberg, Germany) at a density of 25,000 cells/well. […] Subsequently, the plates are washed three times with HBSS buffer and after further incubation for 15 minutes at RT used for Ca^2+ measurement in a FLIPR assay. […] Quantification is carried out by measuring the highest fluorescence intensity (FC, fluorescence counts) over time. The FLIPR protocol consists of 2 substance additions. […] Desensitising agonists and antagonists led to suppression of the Ca^2+ influx. […] Ki values for the test substances were obtained by conversion by means of the Cheng-Prusoff equation (Cheng, Prusoff; Biochem. Pharmacol. 22, 3099-3108, 1973).

T1 sequence (Q8NER1 whole entry): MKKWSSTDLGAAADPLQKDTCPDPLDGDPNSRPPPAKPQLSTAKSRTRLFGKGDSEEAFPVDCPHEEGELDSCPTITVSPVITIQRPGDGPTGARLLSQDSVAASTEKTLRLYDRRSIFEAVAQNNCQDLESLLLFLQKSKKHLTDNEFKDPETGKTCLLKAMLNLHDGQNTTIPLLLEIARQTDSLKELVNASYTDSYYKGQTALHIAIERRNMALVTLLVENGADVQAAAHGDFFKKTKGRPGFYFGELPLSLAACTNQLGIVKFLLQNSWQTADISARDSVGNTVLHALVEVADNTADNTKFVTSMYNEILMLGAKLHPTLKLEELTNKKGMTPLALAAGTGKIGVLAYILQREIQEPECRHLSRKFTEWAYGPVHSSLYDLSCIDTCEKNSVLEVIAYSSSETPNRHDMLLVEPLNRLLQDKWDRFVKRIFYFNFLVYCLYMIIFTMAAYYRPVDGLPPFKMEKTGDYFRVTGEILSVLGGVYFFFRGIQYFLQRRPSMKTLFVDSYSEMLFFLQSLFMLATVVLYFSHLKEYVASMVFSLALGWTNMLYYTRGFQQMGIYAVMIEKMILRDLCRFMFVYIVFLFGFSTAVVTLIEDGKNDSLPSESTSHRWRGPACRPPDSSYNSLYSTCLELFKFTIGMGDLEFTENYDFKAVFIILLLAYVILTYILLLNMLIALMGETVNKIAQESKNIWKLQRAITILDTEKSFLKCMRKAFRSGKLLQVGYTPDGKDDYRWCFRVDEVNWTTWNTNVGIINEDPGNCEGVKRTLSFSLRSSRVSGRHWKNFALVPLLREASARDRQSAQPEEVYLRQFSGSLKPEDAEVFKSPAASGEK
Sequence of rat-species vanilloid receptor 1 (VR1/TRPV1) (O35433 whole entry): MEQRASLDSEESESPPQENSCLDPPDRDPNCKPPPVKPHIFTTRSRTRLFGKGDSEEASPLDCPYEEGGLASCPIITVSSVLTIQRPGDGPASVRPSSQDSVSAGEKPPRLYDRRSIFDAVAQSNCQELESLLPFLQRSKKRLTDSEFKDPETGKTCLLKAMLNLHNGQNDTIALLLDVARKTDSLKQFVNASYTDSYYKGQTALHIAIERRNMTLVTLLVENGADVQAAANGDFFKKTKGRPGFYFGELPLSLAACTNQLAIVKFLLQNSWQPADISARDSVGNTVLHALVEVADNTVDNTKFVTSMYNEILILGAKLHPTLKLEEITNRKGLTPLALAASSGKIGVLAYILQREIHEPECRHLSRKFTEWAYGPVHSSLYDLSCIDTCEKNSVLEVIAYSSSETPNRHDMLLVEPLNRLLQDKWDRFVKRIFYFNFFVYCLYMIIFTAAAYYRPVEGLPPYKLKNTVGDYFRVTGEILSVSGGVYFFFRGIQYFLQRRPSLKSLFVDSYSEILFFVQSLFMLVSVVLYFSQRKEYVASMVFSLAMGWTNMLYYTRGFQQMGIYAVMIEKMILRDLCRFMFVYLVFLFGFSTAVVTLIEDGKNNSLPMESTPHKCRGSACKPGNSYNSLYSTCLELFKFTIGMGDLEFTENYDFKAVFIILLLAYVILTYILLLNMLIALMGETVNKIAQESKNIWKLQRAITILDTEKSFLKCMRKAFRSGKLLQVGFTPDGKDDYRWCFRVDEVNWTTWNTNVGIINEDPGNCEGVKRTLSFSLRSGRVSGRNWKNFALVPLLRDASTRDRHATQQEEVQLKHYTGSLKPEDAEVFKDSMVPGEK

Consider `CC(C(=O)NCc1cc(C(C)(C)C)n[nH]1)c1ccc(NS(C)(=O)=O)c(F)c1` (centres unmarked) [Example 1, N-((3-tert-butyl-1H-pyrazol-5-yl)methyl)-2-(3-fluoro-4-(methylsulphonamido)phenyl)propanamide], for which the inhibition at 5 µM in test [1] was 25%. The “Ki (human being) Cap: result in words (NE / AG)” value (shortened to “Ki (human being) Cap … (NE / AG)”) on hVR1 [2] is given as “NE”. For the same compound, the “IC50 (human being) hVR1 pH: result in words (NE / AG)” value (“IC50 … (NE / AG)” below) at hVR1 [3] is listed as “NE”. With `C[C@H](C(=O)NCc1cc(C(C)(C)C)n[nH]1)c1ccc(NS(C)(=O)=O)c(F)c1` [Example 2, (S)-N-((3-tert-butyl-1H-pyrazol-5-yl)methyl)-2-(3-fluoro-4-(methylsulphonamido)phenyl)propanamide], the inhibition at 5 µM in test [1] came to 25%. For the same compound, the “Ki (human being) Cap … (NE / AG)” value on hVR1 [2] is “NE”. Moreover, the “IC50 … (NE / AG)” value on hVR1 [3] was “NE”. With `CC(C(=O)NCc1cc(C(C)(C)C)nn1C)c1ccc(NS(C)(=O)=O)c(F)c1` (centres unmarked) [Example 3, N-((3-tert-butyl-1-methyl-1H-pyrazol-5-yl)methyl)-2-(3-fluoro-4-(methylsulphonamido)phenyl)propanamide], the inhibition at 5 µM in test [1] came out at 14%; on hVR1 [2] (CHO-K1, read-out: Ki (human being) Cap column: inhibition (as a percentage) @ 5 μM, capsaicin, inhibition determined at 5 μM), 12%. Besides, the “IC50 … (NE / AG)” value at hVR1 [3] is listed as “NE”.

On to `Cc1ccc(-n2nc(C(C)(C)C)cc2CNC(=O)C(C)c2ccc(NS(C)(=O)=O)c(F)c2)cc1` (centres unmarked) [Example 12, N-((3-tert-butyl-1-p-tolyl-1H-pyrazol-5-yl)methyl)-2-(3-fluoro-4-(methylsulphonamido)phenyl)propanamide], for which the inhibition at 10 µM on hVR1 [3] was 40%. On to `CC(C(=O)NCc1cc(C(C)(C)C)nn1-c1ccc(C(C)(C)C)cc1)c1ccc(NS(C)(=O)=O)c(F)c1` (centres unmarked) [Example 13, N-((3-tert-butyl-1-(4-tert-butylphenyl)-1H-pyrazol-5-yl)methyl)-2-(3-fluoro-4-(methylsulphonamido)phenyl)propanamide], for which the Ki in test [1] (capsaicin (Cap)) is 25.9 nM; at hVR1 [2] it was 75.2 nM. Take `C[C@H](C(=O)NCc1cc(C(C)(C)C)nn1-c1cccc(Cl)c1)c1ccc(NS(C)(=O)=O)c(F)c1` [Example 17, (S)-N-((3-tert-butyl-1-(3-chlorophenyl)-1H-pyrazol-5-yl)methyl)-2-(3-fluoro-4-(methylsulphonamido)phenyl)propanamide]: the inhibition at 10 µM on hVR1 [3] stood at 37%.

Turning to `CC(C(=O)NCc1cc(C(C)(C)C)nn1-c1cccc(Cl)c1)c1ccc(N2CCCS2(=O)=O)c(F)c1` (centres unmarked) [Example 55, N-((3-tert-butyl-1-(3-chlorophenyl)-1H-pyrazol-5-yl)methyl)-2-[4-(1,1-dioxidoisothiazolidin-2-yl)-3-fluorophenyl]propanamide], the Ki at hVR1 [2] is 114 nM. In addition, on hVR1 [3], the “IC50 … (NE / AG)” value was “NE”. Consider `COCCOCc1ccc(C(C)C(=O)NCc2cc(C(C)(C)C)nn2-c2cccc(Cl)c2)cc1F` (centres unmarked) [Example 142, N-((3-tert-butyl-1-(3-chlorophenyl)-1H-pyrazol-5-yl)methyl)-2-(3-fluoro-4-((2-methoxyethoxy)methyl)phenyl)propanamide], for which, on hVR1 [2], the “Ki (human being) Cap … (NE / AG)” value was “AG”. With `CC(C(=O)NCc1cc(C(F)(F)F)nn1-c1cccc(Cl)c1)c1ccc(C(=O)Nc2ccccc2)cc1` (centres unmarked) [Example 143, 4-(1-((1-(3-chlorophenyl)-3-(trifluoromethyl)-1H-pyrazol-5-yl)methylamino)-1-oxopropan-2-yl)-N-phenylbenzamide], the inhibition at 1 µM at hVR1 [2] (CHO-K1, read-out: Ki (human being) inhibition (as a percentage) @ 1 μM, capsaicin, inhibition determined at 1 μM) was found to be 56%. As to `CC(C)(C)c1cc(CNC(=O)Nc2ccc(N3CCOCC3)c(F)c2)n(-c2cccc(Cl)c2)n1` [Example 144, 1-((3-tert-butyl-1-(3-chlorophenyl)-1H-pyrazol-5-yl)methyl)-3-(3-fluoro-4-morpholinphenyl)urea], the “Ki (human being) Cap … (NE / AG)” value at hVR1 [2] is reported as “AG”. `O=C(Cc1cc(F)c(O)c(F)c1)NCc1cc(C(F)(F)F)nn1-c1cccc(Cl)c1` [Example 147, N-((1-(3-chlorophenyl)-3-(trifluoromethyl)-1H-pyrazol-5-yl)methyl)-2-(3,5-difluoro-4-hydroxyphenyl)acetamide]: the Ki on hVR1 [2] is 26 nM. Same read-out and setting: as for “N-((1-(3-chlorophenyl)-3-cyclopropyl-1H-pyrazol-5-yl)methyl)-2-(3-fluoro-4-(methylsulfonylmethyl)phenyl)propanamide [Example 128]”, the figure is 16.3 nM.

In general, inhibition refers to the drop in the measured response relative to a control, in per cent. Broadly, the Ki is a measure of affinity in units of concentration, obtained from inhibition or displacement.
